Data on one compound can be found in patent US20240009223A1, “6-THIO-2'-DEOXYGUANOSINE (6-THIO-DG) RESULTS IN TELOMERASE DEPENDENT TELOMERE DYSFUNCTION AND CELL DEATH IN VARIOUS MODELS OF THERAPY-RESISTANT CANCER CELLS” (The Board of Regents of The University of Texas System, priority 2016, published 2024).

The test system of data set [1] is panel of 12 cancer cell lines of 9 different histological origins. The data set is described as follows: Long-term cell growth assay (crystal violet), 12 non-melanoma cancer cell lines. It is filed as cell-based. As to conditions: 9-12 days; in most cases. On the procedure: FIGS. 1A-1B show long-term cell growth assay of 12 non-melanoma cancer cell lines (FIG. 1A) and 12 BRAF-mutant melanoma cell lines (FIG. 1B) that were treated with 6-thio-dG (6dG) or BIBR 1532 (BIBR) at indicated doses for 9 to 12 days.
Treatment of a Variety of Cancer Cell Lines with Telomerase-directed 6-thio-dG Impairs Cell Viability. […] To further confirm the inhibitory effect of 6-thio-dG, a panel of 12 cancer cell lines of 9 different histological origins was treated with 6-thio-dG for 9-12 days. As the control for 6-thio-dG, a known telomerase inhibitor, BIBR 1532, was also included. In most cases, these cancer cell lines were sensitive to 6-thio-dG administered at a dose of 2.5 μM and higher (FIG. 1A).

The test system of data set [2] is 4 BRAF-mutant melanoma cell lines. The data set is described as follows: SA-β-gal staining (senescence). To be noted: 5 μM for 9 days. It is filed as cell-based, human.
Another data set relates to A375 cells. As to the kind of experiment: Western blotting of RPPA-identified proteins in A375 cells. Type of data set: cell-based, human. To be noted: 48 and 72 hours. The source says:
Western Blotting and Antibodies.

In data set [3] the test system is LOX-IMVI BR cells. As to the kind of experiment: FACS analysis of apoptosis and cell death, LOX-IMVI BR. It is filed as cell-based, human. To be noted: 120 hours. On the procedure:
FACS Analysis of Apoptosis and Cell Death. Adherent cells were harvested with 0.05% Trypsin-EDTA, pooled with floating cells and then washed once with 1×DPBS. Cells were then pelleted and stained with PSVue® 643 at 0.5 μM and Propidium iodide at 50 ug/ml diluted in TES buffer for 5 min in the dark. Cells were then immediately subjected to FACS analysis using a BD LSR II flow cytometer and at least 5,000 cells per sample were acquired.
(In general: In flow cytometry, cells or beads pass a laser one at a time.)

The subject of data set [4] is LOX-IMVI BR cells. The data set is described as follows: Telomere length quantification (qPCR). It is filed as cell-based, human. To be noted: 5 μM, 120 hours. As for the experimental part: Telomere length quantification. Telomere length was measured by the ratio of the telomeric DNA and a single copy gene, 36B4. The forward and reverse primers used for amplifying telomeric DNA were tel1b and tel2b. The quantification of telomeric DNA and 36B4 was determined by quantitative real time PCR on Applied Biosystems 7500 Fast Real-Time PCR System. The reaction mixtures (20 μL final volume) contained 10 μL Fast SYBR® Green Master Mix, 500 nM each primer and 10 ng genomic DNA. The reaction conditions were 95° C. for 20 s, followed by 40 cycles of 95° C. for 3 s and 60° C. for 30 s. The telomere length was analyzed by 2^−ΔΔCt method.
For orientation: In qPCR the cycle at which signal appears reflects the starting amount.

For data set [5], the system named is LOX-IMVI BR cells. The data set is described as follows: Telomere dysfunction Induced Foci (TIF) assay / γ-H2AX DNA damage foci. To be noted: 5 μM, compared to the control. Type of data set: cell-based, human. As for the experimental part: Telomere dysfunction Induced Foci (TIF) Assay. The TIF assay is based on the co-localization detection of DNA damage by an antibody against gamma-H2AX, and telomeres using FITC-conjugated telomere sequence ([…])3-specific peptide nucleic acid (PNA) probe. Briefly, LOX-IMVI-BR cells were seeded to 6-well plate (50,000 cells/well). After cells adhered to the surface (next day), 6-thio-dG was added with fresh medium. Cells were treated with or without 6-thio-dG at 5 μM every two days for 4 days. Then cells were harvested and cell numbers were counted. 100,000 cells were re-plated in 4-well chamber slides. After cells adhered to the chamber slide (next day), cells were rinsed twice with 1×PBS and fixed in 4% paraformaldehyde in PBS for 10 minutes. Cells were washed twice with PBS and permeabilized in 0.5% Triton X-100 in PBS for 10 minutes. Following permeabilization, cells were washed three times with PBS. Cells were blocked with 0.2% Fish gelatin and 0.5% BSA in PBS for 30 minutes. Gamma-H2AX (mouse) (Millipore, Billerica, MA) was diluted 1:1000 in blocking solution and incubated with cells for 2 hrs. […] Cells were fixed in 4% paraformaldehyde in PBS for 20 minutes at room temperature. […] Images were captured with Deltavision wide-field microscope using the 60× objective, then deconvoluted using Autoquant X3. Gamma-H2AX and TIFs were quantified using Imaris software.

Data set [6] has as its system LOX-IMVI BR cells. As to the kind of experiment: RPPA of LOX-IMVI BR cells. Type of data set: cell-based, human. To be noted: 72 hours. The source says:
(§1) Analysis of Gene Expression Microarray Data and Reverse Phase Protein Array (RPPA) Data. The raw data of gene expression microarrays generated from Illumina Chips were normalized, background-corrected and summarized using the R package “lumi”. […] To reduce false positives, the unexpressed probes were removed. The R package “limma” was employed for gene differential expression analysis, followed by multiple test correction by the Benjamini and Hochberg procedure. […] The inventors also conducted GSEA as previously reported. For GSEA, they analyzed gene sets obtained from the Molecular Signatures Database (world-wide-web at broadinstitute.org/gsea/msigdb/). The same differential expression analysis method was applied to RPPA data.

In data set [7] the test system is ten melanoma cell lines that acquired resistance to PLX4720 and WM1366 MR. The data set is described as follows: Long-term cell growth assay, MAPKi-resistant melanoma cell lines. Type of data set: cell-based, human. As to conditions: 12 days.
The subject of another data set is WM9 BR xenografts. As to the kind of experiment: WM9 BR xenograft tumor volume. It is filed as in vivo, human. To be noted: WM9 BR xenografts in mice. As for the experimental part:
(§2) Melanoma Xenotransplantation and In vivo Studies. 100,000 melanoma cells were harvested from cell culture and re-suspended in culture medium and Matrigel at a 1:1 ratio. Cells were subcutaneously injected into mice, which were treated with indicated inhibitors when the tumor volume reached 100 mm^3. Mice were sacrificed at the end time point and solid tumors were collected. All animal experiments were performed in accordance with Wistar IACUC protocol 112330 in NOD.[…] 1 Wjl/SzJ mice.

The subject of a further data set is WM4265-2 xenografts. As to the kind of experiment: WM4265-2 xenograft tumor volume. Type of data set: in vivo, human. On the procedure: as §2
Background: In xenograft studies the graft and the host belong to different species.

For a further data set, the system named is 15-1761-1-2 xenografts. As to the kind of experiment: 15-1761-1-2 xenograft tumor volume. Type of data set: in vivo, human. As for the experimental part: as §2
The subject of data set [8] is mTOR-S6 signaling axis in 13-456-3-3 xenografts. As to the kind of experiment: RPPA of 13-456-3-3 xenografts. It is filed as in vivo, human.
Excerpt: as §1

The subject of data set [9] is mouse pancreatic cancer cell line G43. As to the kind of experiment: Long-term cell growth assay of G43 cells. Type of data set: cell-based. To be noted: in vitro, 9 days. From the text: This work was further extended to non-melanoma therapy-resistant cancer cells in order to evaluate the efficacy of 6-thio-dG more broadly. The mouse pancreatic cancer cell line G43 was established from mouse pancreatic tumors harboring mutations in KRAS and P53 that progressed on radiation therapy and subsequently ipilimumab.

Data set [10] deals with AXL, IGF-IRβ and VEGFR in G43 tumors. The data set is described as follows: RPPA of G43 tumors treated in vivo. Further details: species or system mouse.
Excerpt: as §1

Data set [11] concerns colon cancer cell line, HCT-116. To be noted: Mender et al., 2015; cited from earlier work.
Another data set deals with normal fibroblasts. As to conditions: previous study (Mender et al., 2015); cited from earlier work.

Structures are written as SMILES.

Regarding `Nc1nc2c(ncn2[C@H]2C[C@H](O)[C@@H](CO)O2)c(=S)[nH]1` [6-thio-dG, 6-thio-2′-deoxyguanosine], the “dose at which the cell lines were sensitive (long-term cell growth)” value in data set [1] was not below 2.5 µM. Further, the “cellular senescence (SA-β-gal staining) in surviving cells” value in data set [2] was “triggered the induction of cellular senescence”. For the same compound, the “RPPA-identified down-regulated proteins, validated by western blotting” value with A375 cells is recorded as “inhibited”. For the same compound, in the data set on LOX-IMVI BR cells [3], the “apoptosis and cell death (PSVue 643+ cells)” value was “significantly induced apoptosis and cell death”. Besides, the telomere length entry with LOX-IMVI BR cells [4] was “progressive telomere shortening”. Moreover, the “DNA damage (γ-H2AX foci)” value with LOX-IMVI BR cells [5] is “induced DNA damage”. Besides, in the data set on LOX-IMVI BR cells [5], the “telomere dysfunction-induced foci (TIFs)” value is listed as “increase in telomere dysfunction-induced foci”. Moreover, the “three major signaling pathways (cell cycle, DNA damage response, receptor tyrosine kinase signaling) by RPPA” value in the data set with LOX-IMVI BR cells [6] is listed as “altered”. Besides, the “cell viability (long-term cell growth)” value in [7] was “impaired their viabilities”. In addition, in the data set on WM9 BR xenografts, the “in vivo growth of xenografts” value is recorded as “significantly impaired the in vivo growth”. The “anti-tumor activity in xenografts” value in the data set with WM4265-2 xenografts and in the data set with 15-1761-1-2 xenografts was “anti-tumor activity” each time. The “mTOR-S6 signaling axis (RPPA)” value in data set [8] is recorded as “down-regulated”. Moreover, the cell viability result is “impaired cell viability” in data set [9] and “inhibited cell viability” in data set [11]. For the same compound, the “AXL, IGF-IRβ and VEGFR (RPPA)” value in data set [10] is recorded as “down-regulated”. Further, the “sensitivity of normal fibroblasts” value in the data set with normal fibroblasts is given as “not sensitive”.
